Drawing on ChEMBL document CHEMBL1139736, “Microwave expedited synthesis of 5-aminocamptothecin analogs: Inhibitors of hypoxia inducible factor HIF-1alpha” (2006), this text covers inhibition for eight compounds.

The first assay relates to LNCaP C4-2. As to the kind of experiment: Inhibition of HIF1-alpha production in c4-2 cells at 20 nM after 24 hrs relative to control. It is filed as functional. The note with it: Homo sapiens, LNCaP C4-2, 24 h.
Consider `CO[C@H]1C[C@@H]2CC[C@@H](C)[C@@](O)(O2)C(=O)C(=O)N2CCCC[C@H]2C(=O)O[C@H]([C@H](C)C[C@@H]2CC[C@@H](O)[C@H](OC)C2)CC(=O)[C@H](C)/C=C(\C)[C@@H](O)[C@@H](OC)C(=O)[C@H](C)C[C@H](C)/C=C/C=C/C=C/1C` [SIROLIMUS], for which testing at 0.02 µM gave an inhibition of 35%.

Another assay relates to LNCaP C4-2. As to the kind of experiment: Inhibition of HIF1alpha production in c4-2 cells at 10 uM after 24 hrs relative to control. It is filed as functional. The note with it: Homo sapiens, LNCaP C4-2, 24 h.
For the compound `CCCNc1c2c(c(=O)n3c1-c1nc4ccccc4cc1C3)COC(=O)[C@]2(O)CC`, the inhibition at 10 µM was determined as 76%.

Consider `CC[C@@]1(O)C(=O)OCc2c1c(NCCF)c1n(c2=O)Cc2cc3ccccc3nc2-1`, for which the inhibition at 10 µM worked out at 88%.

Take `CC[C@@]1(O)C(=O)OCc2c1c(NCc1cccc(F)c1)c1n(c2=O)Cc2cc3ccccc3nc2-1`: the inhibition at 10 µM was determined as 0%.

On to `CC[C@@]1(O)C(=O)OCc2c1c(NCc1ccc(F)cc1)c1n(c2=O)Cc2cc3ccccc3nc2-1`, for which the inhibition at 10 µM amounted to 40%.

The compound `CC[C@@]1(O)C(=O)OCc2c1c(NCc1ccc(OC)cc1)c1n(c2=O)Cc2cc3ccccc3nc2-1` returned an inhibition at 10 µM of 9%.

Compound `CC[C@@]1(O)C(=O)OCc2c1cc1n(c2=O)Cc2cc3ccccc3nc2-1` [CAMPTOTHECIN] gave an inhibition at 10 µM of 69%.

On to `CC[C@@]1(O)C(=O)OCc2c1cc1n(c2=O)Cc2cc3c(CN(C)C)c(O)ccc3nc2-1` [TOPOTECAN], for which the inhibition at 10 µM worked out at 69%.

The term inhibition denotes the relative decrease from the control value, in per cent. Higher therefore signals a response far below the control.
